Experimental data reported in US20150291565A1, “INDOLE COMPOUNDS AND THEIR USE AS ANTIMICROBIALS” (Memorial Sloan-Kettering Cancer Center, priority 2012, published 2015).
Converted amounts (≈) assume the structure as drawn. “And” between values parts separate entries of the source, which are not always exact repeats. Identical values can stand only once. Like-named read-outs stand apart in the source and are kept apart here.

Legend:
C. albicans ATCC 14053 = experiment: Broth dilution MIC, C. albicans ATCC 14053; format: cell-based; settings: Candida albicans, ATCC14053; Table 1; range 64 down to 0.12 μg/ml
Experimental: In vitro Anti-bacterial & Anti-fungal Activity Assay: All test compounds were prepared as 6.4 mg/ml stock solutions in DMSO and further diluted according to the NCCLS M7-A6 (Page 5) document with sterile water or appropriate diluent. A working stock of 256 μg/ml was used to do 1:2 serial dilutions in 96-well plates. […] The inoculums were prepared by making a direct sterile water suspension of isolated colonies from 18 to 24 hr agar plates for all organisms (Mueller Hinton, Blood Agar or SDA plates). Each bacterial suspension was adjusted to read between 0.09 and 0.11 absorbance at 620 nm. […] These were further diluted 1/100 in appropriate broth for inoculating the 96-well plates. The C. albicans suspension was adjusted to read between 70 and 75% Transmittance at 530 nm and then diluted 1/500 in RPMI+MOPS broth. All aerobic bacterial and fungal plates were incubated for 18 hrs. at 35° C. […] Plates were read using a Beckman Automated Plate Reader at 650 nm. Readings were confirmed by visual examination of plates. (See Table 1, Table 2, Table 3, and Table 4). […] It is important to note that positive results against C. albicans are often indicative of broad spectrum antifungal activity, while negative results are not necessarily conclusory of a lack of activity against other fungus.

K. pneumoniae ATCC 51503 = experiment: Broth dilution MIC, K. pneumoniae ATCC 51503; format: cell-based; settings: Klebsiella pneumoniae
M. tuberculosis = experiment: Testing against M. tuberculosis; format: cell-based; settings: recent testing
Mycobacterium smegmatis = experiment: Time kill curve, liquid culture, M. smegmatis; format: cell-based; settings: 1.9 micromolar; vs DMSO control; FIG. 1 right-hand graph
[1] = tested on: S. aureus ATCC 29213 (MSSA); experiment: Broth dilution MIC, S. aureus ATCC 29213; format: cell-based; settings: Staphylococcus aureus
M. smegmatis (mc2155) = experiment: Disk diffusion assay, zone of inhibition, M. smegmatis; format: cell-based
[2] = tested on: methicillin-resistant S. aureus (ATCC 33591); experiment: Thigh infection model in neutropenic CD1 mice, MRSA; settings: 24 hours; for Log reduction: vs vehicle
E. coli ECM 1694 = experiment: Broth dilution MIC, E. coli ECM 1694; format: cell-based; settings: Escherichia coli

c1cc(C2=NCCN2)ccc1Nc1ccc(-c2cc3ccc(C4=NCCN4)cc3[nH]2)cc1 [SKI-1]
MIC (C. albicans ATCC 14053): 1 µg/mL (≈ 2.38 µM)
MIC (K. pneumoniae ATCC 51503; ATCC51503, Table 1, range 64 down to 0.12 μg/ml, read-out: MIC K. pneumoniae ATCC 51503): 2 µg/mL (≈ 4.76 µM)
MIC (K. pneumoniae ATCC 51503; ATCC51503, Table 2, broth dilution MIC in ug/ml, read-out: MIC K pneumonia ATCC 51503): 2 µg/mL (≈ 4.76 µM)
MIC (K. pneumoniae ATCC 51503; ATCC51503, Table 4, broth dilution MIC according to CLSI standards (NAEJA), read-out: MIC K. pneumoniae ATCC 51503): 1 µg/mL (≈ 2.38 µM)
Activity against M. tuberculosis (M. tuberculosis): comparable to that observed for M. smegmatis
Viable bacterial titer over time (time kill curve) (Mycobacterium smegmatis): bactericidal
MIC ([1]; Table 3, starting at 4 μg/ml, read-out: MIC S. aureus ATCC 29213): 0.25 µg/mL (≈ 0.595 µM)
MIC ([1]; Table 1, range 64 down to 0.12 μg/ml, read-out: MIC S. aureus ATCC 29213): 0.25 µg/mL (≈ 0.595 µM)
MIC ([1]; Table 2, broth dilution MIC in ug/ml, read-out: MIC S aureus ATCC 29213 MSSA): 0.25 µg/mL (≈ 0.595 µM)
MIC ([1]; Table 4, broth dilution MIC according to CLSI standards (NAEJA), read-out: MIC MSSA S. aureus ATCC 29213): 0.25 µg/mL (≈ 0.595 µM)
Zone Size M. smegmatis (M. smegmatis (mc2155); disk diffusion zone of inhibition): 19.6 mm
Average Zone Size MC2155 (n = 3) (M. smegmatis (mc2155); n = 3): 12.3
Mean bacterial tissue burden (log10/thigh) ([2]; 10 mg/kg BID IP): 8.3106 log10/thigh
Log reduction ([2]; 10 mg/kg BID IP, listed as 356313, 10 mg/kg): 0.14 Log and 0.1382 Log
Mean bacterial tissue burden (log10/thigh) ([2]; 20 mg/kg BID IP): 7.7428 log10/thigh
Log reduction ([2]; 20 mg/kg BID IP, listed as 356313, 20 mg/kg): 0.71 Log and 0.7060 Log
MIC (E. coli ECM 1694; ECM1694, Table 1, range 64 down to 0.12 μg/ml, read-out: MIC E. coli ECM 1694): 0.25 µg/mL (≈ 0.595 µM)
MIC (E. coli ECM 1694; ECM1694, Table 2, broth dilution MIC in ug/ml, read-out: MIC E. coli ECM 1693): 0.25 µg/mL (≈ 0.595 µM)
MIC (E. coli ECM 1694; ECM1694, Table 3, starting at 4 μg/ml, read-out: MIC E. coli ECM 1694): 0.5 µg/mL (≈ 1.19 µM)
MIC (E. coli ECM 1694; ECM1694, Table 4, broth dilution MIC according to CLSI standards (NAEJA), read-out: MIC E. coli ECM 1694): 0.25 µg/mL (≈ 0.595 µM)
